Patent US9926304B2, “1-(arylmethyl)quinazoline-2,4(1H,3H)-diones as PARP inhibitors and the use thereof” (Impact Therapeutics, Inc., priority 2011, dated 2018)
Structures can show the parent of a compound that is named as a salt. Where two headings read alike, the source gives them in different places.

How the values were obtained:
[1] = tested on: Human breast cancer cell line T47D; test: Cell based caspase-3 activity assay: potentiation of MMS induced apoptosis; conditions: T47D cells, 11.1 μg/ml MMS, 24 hours, intracellular caspase-3 activity, read-out: EC50 (nM), potentiation of the apoptosis inducing activity of MMS
Text: Determination of the synergistic potentiation effect of 1-(3-(4-(pyrimidin-2-yl)piperazine-1-carbonyl)benzyl)quinazoline-2,4(1H,3H)-dione and analogs on MMS induced apoptosis using a cell based caspase-3 activity assay
Human breast cancer cell line T47D was used to determine the potentiation effect of PARP inhibitors on the apoptosis inducing activity of DNA damaging anticancer drugs such as MMS. Intracellular caspase-3 activity was used to measure cell apoptosis. The dose response effect of MMS to induce intracellular caspase activity was carefully titrated and the concentration that only induces a minimal level of caspase activity was used to test the potentiation effect of PARP inhibitors. Briefly, T47D cells were grown in DMEM/F12 cell culture medium (Hyclone) supplemented with 0.2 U/ml insulin (Genview) and 10% FBS (Hyclone). A day before experiment, 20000 of T47D cells were seeded to each well of a 96-well cell culture plate and maintained at 37° C. and 5% CO2 in a cell culture incubator overnight. On the day of experiment, cell culture medium was removed. One hundred and eighty μl of fresh medium containing 11.1 μg/ml MMS was added to each well and followed by 20 μl medium containing 10 folds of the concentrations of experimental drugs or reference compounds (ADZ2281 and ABT-888). The serial dilutions of the compounds to be tested and the reference compounds were made in a 1:3 and 1:10 fashion in DMSO. The 10-fold compound solutions were made by mixing 10 μl DMSO serial dilution solutions with 90 μl fresh growth medium. Twenty four hours later, the cells in the 96-well plates were centrifuged at 1000 g for 5 min and the supernatants were removed. Fifty μl lysis buffer (10 mM Tris, pH7.5, 0.1M NaCl, 1 mM EDTA, 0.01% Triton X-100) was added to each well and the plates were shaked horizontally for 30 min at 4° C. After centrifugation at 1000 g at 4° C. for 10 min, 20 μl of supernatant was transferred from each well to a corresponding well in a 384-well black plate. Twenty μl of buffer (20 mM PIPES, pH7.4, 4 mM EDTA and 0.2% CHAPS) containing 20 μM fluorescent caspase-3 substrate ((Ac-DEVD)2-R110, AnaSpec Cat #60304-5) was added to each well afterwards. The plates were shaked to uniformly mix the wells and incubated at 37° C. for 3 h. The fluorescence intensity was measured using the following wavelength: ex: 496 nm, em: 520 nm using a fluorescence plate reader (Varioskan Flash, Thermo Fisher Scientific). The caspase-3 activity induced by the compounds was expressed as a relative fluorescence unit (RFU). The obtained fluorescence readings were analyzed using a commercial graphic software (GraphPad Prism 5) and plotted against the Log value of the compound concentrations. The EC50 values were obtained by fitting the data points with the equation of Y (fluorescence reading)=minimal fluorescence reading+(maximal fluorescence reading−minimal fluorescence reading)/(1+10^(Log EC50−Log C)), where C is the concentration of the testing compound.
The synergistic potentiation effect of compounds on MMS induced apoptosis in T47D cells is expressed as EC50 values and listed in Table 2.

[2] = tested on: SW620 human colorectal cancer cells; test: MTT based cell viability assay: potentiation of the growth inhibiting activity of MMS
Method: Briefly, SW620 human colorectal cancer cells were used to measure the cell growth inhibiting activity of DNA alkylating anticancer drug MMS. […] SW620 cells were grown and maintained in RPMI1640 (Gibco) medium supplemented with 10% FBS (Hyclone). In the first day of experiment, 4000 cells were seeded to each well of a 96-well cell culture plate and incubated at 37° C. and 5% CO2 in a cell culture incubator overnight. In the next day, the cell culture medium was removed. […] The serial dilutions of the reference compounds and the compounds to be tested were made with a 1:3 and 1:10 fashion in DMSO. The 10-fold concentrated solutions of these compounds were made by mixing 10 μl of the serial dilutions in DMSO with 90 μl fresh medium. The final concentration of DMSO in the medium was 1%. The cells were incubated at 37° C. in 5% CO2 cell culture incubator for additional 5 days (120 hours). Afterwards, the 96-well cell culture plate was taken out and 20 μl of MTT solution was added to each well and incubated at 37° C. for 4 h. The medium was removed and 100 μl DMSO was added to each well. The 96-well cell culture plates were shaked adequately for 10 min and read in a Varioskan Flash plate reader (Thermo Fisher Scientific) at 520 and 690 nm. The data were analyzed by Prism 5 software (GraphPad). The obtained 520 nm absorbance readings subtracting corresponding 690 nm reading were analyzed and plotted against the Log scale of the compound concentrations.

[3] = Homo sapiens, SW-620, 120 h, read-out: IC50 (nM), potentiation of the growth inhibiting activity of MMS, SW620 cells, 1.7 μg/ml MMS, 5 days (120 hours), MTT

EC50 ([1]; Homo sapiens, T47D, 24 h) [nM] | IC50 [2, 3] [nM] | EC50 [1] [nM] | IC50 ([2]; read-out: IC50 (nM), potentiation of the growth inhibiting activity of MMS, SW620 cells, 1.7 μg/ml MMS, 5 days (120 hours), MTT) [nM] | Compound
18 | 62 |  |  | O=C(c1ccc(F)c(Cn2c(=O)[nH]c(=O)c3c(F)cccc32)c1)N1CCN(C(=O)c2ccco2)CC1 [Example 184, 5-Fluoro-1-(6-fluoro-3-(4-(furan-2-carbonyl)piperazine-1-carbonyl)benzyl)quinazoline-2,4(1H,3H)-dione]
11 | 7.9 |  |  | O=C(c1cc(Cn2c(=O)[nH]c(=O)c3cc(F)ccc32)ccc1F)N1CCN(C(=O)C2CC2)CC1 [Example 178, 1-(3-(4-(Cyclopropylcarbonyl)piperazine-1-carbonyl)-4-fluorobenzyl)-6-fluoroquinazoline-2,4(1H,3H)-dione]
> 10000 | > 10000 |  |  | Cc1cccc2c(=O)n(Cc3cccc(C(=O)N4CCN(c5ncccn5)CC4)c3)c(=O)[nH]c12 [Example 225, 8-Methyl-3-(3-(4-(pyrimidin-2-yl)piperazine-1-carbonyl)benzyl)quinazoline-2,4(1H,3H)-dione]
11 | 18 |  |  | O=C(c1cccc(Cn2c(=O)[nH]c(=O)c3ccccc32)c1)N1CCN(c2ncccn2)CC1 [Example 194, 1-(3-(4-(Pyrimidin-2-yl)piperazine-1-carbonyl)benzyl)quinazoline-2,4(1H,3H)-dione hydrochloride]
2870 | 2660 |  |  | O=C(c1cccc(Cn2c(=O)[nH]c(=O)c3ccccc32)c1)N1CCN(S(=O)(=O)C2CCCCC2)CC1 [Example 75, 1-(3-(4-(Cyclohexylsulfonyl)piperazine-1-carbonyl)benzyl)quinazoline-2,4(1H,3H)-dione]
23 | 48 |  |  | O=C(c1ccc(F)c(Cn2c(=O)[nH]c(=O)c3c(Cl)cccc32)c1)N1CCN(C(=O)C2CCCC2)CC1 [Example 109, 5-Chloro-1-(3-(4-(cyclopentylcarbonyl)piperazine-1-carbonyl)-6-fluorobenzyl)quinazoline-2,4(1H,3H)-dione]
471 | 1440 |  |  | O=c1[nH]c(=O)n(Cc2cccc(CN3CCN(c4ccccn4)CC3)c2)c2ccccc12 [Example 195, 1-(3-((4-(Pyridin-2-yl)piperazin-1-yl)methyl)benzyl)quinazoline-2,4(1H,3H)-dione]
> 10000 | > 10000 |  |  | O=C(c1cccc(CCn2c(=O)[nH]c(=O)c3ccccc32)c1)N1CCN(c2ncccn2)CC1 [Example 229, 1-(3-(4-(Pyrimidin-2-yl)piperazine-1-carbonyl)phenethyl)quinazoline-2,4(1H,3H)-dione]
6.5 | 18 |  |  | O=C(c1ccc(F)c(Cn2c(=O)[nH]c(=O)c3cc(Cl)ccc32)c1)N1CCN(C(=O)c2cccs2)CC1 [Example 126, 6-Chloro-1-(6-fluoro-3-(4-(thiophene-2-carbonyl)piperazine-1-carbonyl)benzyl)quinazoline-2,4(1H,3H)-dione]
43 | 120 |  |  | O=C(c1ccc(F)c(Cn2c(=O)[nH]c(=O)c3c(Cl)cccc32)c1)N1CCN(C(=O)C2CCC2)CC1 [Example 170, 5-Chloro-1-(3-(4-(cyclobutylcarbonyl)piperazine-1-carbonyl)-6-fluorobenzyl)quinazoline-2,4(1H,3H)-dione]
> 10000 | > 10000 |  |  | O=C(c1ccc(Cn2c(=O)[nH]c(=O)c3ccccc32)cc1)N1CCN(c2ccccn2)CC1 [Example 94, 1-(4-(4-(Pyridin-2-yl)piperazine-1-carbonyl)benzyl)quinazoline-2,4(1H,3H)-dione]
4170 | > 10000 |  |  | O=C(c1cccc(Cn2c(=O)[nH]c(=O)c3cc([N+](=O)[O-])ccc32)c1)N1CCN(C(=O)C2CCCC2)CC1 [Example 90, 1-(3-(4-(Cyclopentylcarbonyl)piperazine-1-carbonyl)benzyl)-6-nitroquinazoline-2,4(1H,3H)-dione]
 |  | 2.3 | 2.1 | 1-(3-(4-(Cyclopentylcarbonyl)piperazine-1-carbonyl)-4-fluorobenzyl)-6-fluoroquinazoline-2,4(1H,3H)-dione [Example 148]
> 10000 | > 10000 |  |  | O=C(c1ccc(Cn2c(=O)[nH]c(=O)c3ccccc32)cc1)N1CCN(c2ncccn2)CC1 [Example 97, 1-(4-(4-(Pyrimidin-2-yl)piperazine-1-carbonyl)benzyl)quinazoline-2,4(1H,3H)-dione]
18 | 59 |  |  | O=C(c1ccc(F)c(Cn2c(=O)[nH]c(=O)c3ccccc32)c1)N1CCN(C(=O)C2CCC2)CC1 [Example 53, 1-(3-(4-(Cyclobutylcarbonyl)piperazine-1-carbonyl)-6-fluorobenzyl)quinazoline-2,4(1H,3H)-dione]
2.4 | 4.9 |  |  | O=C(c1ccccc1)N1CCN(C(=O)c2cc(Cn3c(=O)[nH]c(=O)c4cc(F)ccc43)ccc2F)CC1 [Example 181, 1-(3-(4-Benzoylpiperazine-1-carbonyl)-4-fluorobenzyl)-6-fluoroquinazoline-2,4(1H,3H)-dione]
> 10000 | > 10000 |  |  | O=C(c1ccccc1Cn1c(=O)[nH]c(=O)c2ccccc21)N1CCN(c2ncccn2)CC1 [Example 220, 1-(2-(4-(Pyrimidin-2-yl)piperazine-1-carbonyl)benzyl)quinazoline-2,4(1H,3H)-dione]
124 | 217 |  |  | O=C(c1ccc(F)c(Cn2c(=O)[nH]c(=O)c3ccccc32)c1)N1CCN(C(=O)c2ccco2)CC1 [Example 54, 1-(6-Fluoro-3-(4-(furan-2-carbonyl)piperazine-1-carbonyl)benzyl)quinazoline-2,4(1H,3H)-dione]
67 | 137 |  |  | O=C(c1cccc(Cn2c(=O)[nH]c(=O)c3cc(Br)ccc32)c1)N1CCN(c2ncccn2)CC1 [Example 88, 6-Bromo-1-(3-(4-(pyrimidin-2-yl)piperazine-1-carbonyl)benzyl)quinazoline-2,4(1H,3H)-dione]
108 | 171 |  |  | O=C(c1ccc(Cl)c(Cn2c(=O)[nH]c(=O)c3ccccc32)c1)N1CCN(c2ccccn2)CC1 [Example 58, 1-(6-Chloro-3-(4-(pyridin-2-yl)piperazine-1-carbonyl)benzyl)quinazoline-2,4(1H,3H)-dione]
22 | 55 |  |  | O=C(c1ccc(F)c(Cn2c(=O)[nH]c(=O)c3ccccc32)c1)N1CCN(C(=O)c2cccs2)CC1 [Example 52, 1-(6-Fluoro-3-(4-(thiophene-2-carbonyl)piperazine-1-carbonyl)benzyl)quinazoline-2,4(1H,3H)-dione]
> 10000 | > 10000 |  |  | O=C(c1cccc(Cn2c(=O)[nH]c(=O)c3ccccc32)c1Cl)N1CCN(c2ncccn2)CC1 [Example 60, 1-(2-Chloro-3-(4-(pyrimidin-2-yl)piperazine-1-carbonyl)benzyl)quinazoline-2,4(1H,3H)-dione]
2.1 | 7 |  |  | O=C(c1ccccc1)N1CCN(C(=O)c2cc(Cn3c(=O)[nH]c(=O)c4c(F)cccc43)ccc2F)CC1 [Example 137, 1-(3-(4-Benzoylpiperazine-1-carbonyl)-4-fluorobenzyl)-5-fluoroquinazoline-2,4(1H,3H)-dione]
8.4 |  |  |  | O=C(c1cc(Cn2c(=O)[nH]c(=O)c3cc(Cl)ccc32)ccc1F)N1CCN(C(=O)C2CC2)CC1 [Example 122, 6-Chloro-1-(3-(4-(cyclopropylcarbonyl)piperazine-1-carbonyl)-4-fluorobenzyl)quinazoline-2,4(1H,3H)-dione]
 | 192 |  |  | O=C(NC1CCCCC1)N1CCN(C(=O)c2cccc(Cn3c(=O)[nH]c(=O)c4ccccc43)c2)CC1 [Example 191, 1-(3-(4-(Cyclohexylcarbamoyl)piperazine-1-carbonyl)benzyl)quinazoline-2,4(1H,3H)-dione]
